Assay results from ChEMBL document CHEMBL1201862, “PubChem BioAssay data set” (2004).
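Cells were grown in 96-well plates and exposed to each compound for 48 hours at five concentrations; endpoints were interpolated linearly between bracketing concentrations, or set to the highest concentration if not reached. The concentration for 50% growth inhibition is given as GI50.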 Active and inactive are the calls of the source. Rule as the data show it: active = GI50 up to about 1.1 µM and inactive = higher.

Columns and labels:
Assay in all cases: NCI anticancer screen, dose series, 48 h
HCT-15 = system: HCT-15
HT-29 = system: HT-29
SF-539 = system: SF-539
SN12C = system: SN12C
UACC-257 = system: UACC-257
SK-MEL-2 = system: SK-MEL-2
MDA-MB-435 = system: MDA-MB-435
PC-3 = system: PC-3
A498 = system: A498
SNB-19 = system: SNB-19
OVCAR-8 = system: OVCAR-8
Malme-3M = system: Malme-3M
CCRF-CEM = system: CCRF-CEM
M14 = system: M14
NCI-H226 = system: NCI-H226
UACC-62 = system: UACC-62
EKVX = system: EKVX
RXF 393 = system: RXF 393
CAKI-1 = system: CAKI-1
COLO 205 = system: COLO 205

Compound	GI50 (HCT-15) [µM]	GI50 (HT-29)	GI50 (SF-539)	GI50 (SN12C)	GI50 (UACC-257)	GI50 (SK-MEL-2)	GI50 (MDA-MB-435)	GI50 (PC-3)	GI50 (A498)	GI50 (SNB-19)	GI50 (OVCAR-8)	GI50 (Malme-3M)	GI50 (CCRF-CEM)	GI50 (M14)	GI50 (NCI-H226)	GI50 (UACC-62)	GI50 (EKVX)	GI50 (RXF 393)	GI50 (CAKI-1)	GI50 (COLO 205)
COc1ccc(C(C)NNC(=O)c2cc[n+]([BH2-]C#N)cc2)cc1OC (stereo unspecified)	> 100	> 100 µM (inactive)	> 100 µM (inactive)	> 100 µM (inactive)	> 100 µM (inactive)	> 100 µM (inactive)	> 100 µM (inactive)	> 100 µM (inactive)	> 100 µM (inactive)	> 100 µM (inactive)	> 100 µM (inactive)	> 100 µM (inactive)	> 100 µM (inactive)	> 100 µM (inactive)	> 100 µM (inactive)	> 100 µM (inactive)	> 100 µM (inactive)	> 100 µM (inactive)	> 100 µM (inactive)	> 100 µM (inactive)
CC(C)(C)C(=O)Nc1cccc(-c2ccc[nH]2)n1	> 100	> 100 µM (inactive)	> 100 µM (inactive)	> 100 µM (inactive)	> 84.9 µM (inactive)	> 100 µM (inactive)	> 44.9 µM (inactive)	> 100 µM (inactive)	> 100 µM (inactive)	> 100 µM (inactive)	> 100 µM (inactive)	> 100 µM (inactive)	> 100 µM (inactive)	> 100 µM (inactive)	> 100 µM (inactive)	86.9 µM (inactive)	> 85.7 µM (inactive)	> 100 µM (inactive)	> 100 µM (inactive)	> 100 µM (inactive)
Nc1nc(N)nc(-c2cnccn2)n1	> 100	–	> 100 µM (inactive)	> 100 µM (inactive)	> 100 µM (inactive)	> 100 µM (inactive)	> 100 µM (inactive)	> 100 µM (inactive)	> 100 µM (inactive)	> 100 µM (inactive)	> 100 µM (inactive)	> 100 µM (inactive)	> 100 µM (inactive)	> 100 µM (inactive)	> 100 µM (inactive)	> 100 µM (inactive)	> 100 µM (inactive)	> 100 µM (inactive)	> 100 µM (inactive)	> 100 µM (inactive)
COCCc1c(C)c(C#N)c2n(C)c3ccccc3n2c1=O	> 10	> 10 µM (inactive)	> 10 µM (inactive)	> 10 µM (inactive)	> 10 µM (inactive)	> 10 µM (inactive)	> 10 µM (inactive)	> 10 µM (inactive)	> 10 µM (inactive)	> 10 µM (inactive)	> 10 µM (inactive)	> 10 µM (inactive)	–	> 10 µM (inactive)	> 10 µM (inactive)	> 10 µM (inactive)	> 10 µM (inactive)	> 10 µM (inactive)	> 10 µM (inactive)	> 10 µM (inactive)
CCOc1ccccc1/N=N/C1C(=O)N(C(=O)CC(=O)Nc2ccccc2C)N=C1C (stereo unspecified)	20.9	> 100 µM (inactive)	56 µM (inactive)	> 100 µM (inactive)	–	38.4 µM (inactive)	> 100 µM (inactive)	> 100 µM (inactive)	29.2 µM (inactive)	–	39 µM (inactive)	> 100 µM (inactive)	> 100 µM (inactive)	> 100 µM (inactive)	> 100 µM (inactive)	21.3 µM (inactive)	0.984 µM (active)	25.4 µM (inactive)	> 100 µM (inactive)	> 100 µM (inactive)
Nc1nc(Nc2ccc(Cl)cc2)sc1C(=O)c1cc2ccccc2oc1=O	34.5	72.4 µM (inactive)	71.6 µM (inactive)	14.2 µM (inactive)	69.5 µM (inactive)	7.94 µM (inactive)	23.7 µM (inactive)	48.1 µM (inactive)	19.2 µM (inactive)	> 100 µM (inactive)	–	19.1 µM (inactive)	7.38 µM (inactive)	68.9 µM (inactive)	> 100 µM (inactive)	55.8 µM (inactive)	–	82.6 µM (inactive)	–	59.6 µM (inactive)
COc1ccc(OC/C(N)=N/NC(=O)c2ccncc2)cc1	> 100	> 100 µM (inactive)	> 100 µM (inactive)	> 100 µM (inactive)	> 100 µM (inactive)	> 100 µM (inactive)	> 100 µM (inactive)	> 100 µM (inactive)	> 100 µM (inactive)	> 100 µM (inactive)	> 100 µM (inactive)	> 100 µM (inactive)	> 100 µM (inactive)	> 100 µM (inactive)	–	> 100 µM (inactive)	> 100 µM (inactive)	> 100 µM (inactive)	> 100 µM (inactive)	> 100 µM (inactive)
COc1cc(S(=O)(=O)Nc2nc(-c3ccc(N4C(=O)CSC4c4cccs4)cc3)cs2)ccc1Cl (stereo unspecified)	22.8	> 100 µM (inactive)	49.7 µM (inactive)	25.6 µM (inactive)	71 µM (inactive)	57.5 µM (inactive)	> 100 µM (inactive)	88.3 µM (inactive)	> 100 µM (inactive)	> 100 µM (inactive)	33 µM (inactive)	> 100 µM (inactive)	17.9 µM (inactive)	> 100 µM (inactive)	> 100 µM (inactive)	83.6 µM (inactive)	–	24.1 µM (inactive)	> 100 µM (inactive)	> 100 µM (inactive)
